These results are taken from patent US20230114241A1, “METHODS OF TREATING EPILEPSY USING THE SAME” (Trevena, Inc., priority 2019, published 2023).

Some results are limits rather than exact numbers.

human sphingosine-1-phosphate receptor 1 (S1P1), sequence (P21453 whole entry): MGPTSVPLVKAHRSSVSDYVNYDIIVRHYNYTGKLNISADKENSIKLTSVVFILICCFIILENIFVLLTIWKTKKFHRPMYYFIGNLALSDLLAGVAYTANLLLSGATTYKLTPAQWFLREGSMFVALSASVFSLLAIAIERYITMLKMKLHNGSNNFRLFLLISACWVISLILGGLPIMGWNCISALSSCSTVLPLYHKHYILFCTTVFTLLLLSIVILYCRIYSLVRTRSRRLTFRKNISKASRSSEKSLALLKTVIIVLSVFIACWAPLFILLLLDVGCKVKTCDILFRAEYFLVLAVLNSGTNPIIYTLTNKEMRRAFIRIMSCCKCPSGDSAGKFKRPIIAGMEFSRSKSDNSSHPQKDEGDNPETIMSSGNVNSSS

For this experiment, the target named is human sphingosine-1-phosphate receptor 1 (S1P1) (Homo sapiens, UniProt P21453). In words: Inhibition of cAMP production (HTRF cAMP HiRange), S1P1 CHO-K1 cells. Type of experiment: cell-based. The conditions noted are these: inhibition of cAMP production; potency; read-out: hS1P1 CAMP pEC50 (converted). A digest of the protocol:
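Intracellular cAMP changes read by TR-FRET (HTRF HiRange, 1 h room temperature) after 30 min compound exposure at 37 °C. Cells: overnight-plated CHO-K1 stably expressing tagged human S1P1 with EA-β-arrestin2. Responses normalized to fingolimod.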
Consider `CCCCC1(CCCC)CC(=O)c2cc(-c3nc(-c4cccnc4)no3)ccc2O1` [Compound 188, 2,2-dibutyl-6-[3-(pyridin-3-yl)-1,2,4-oxadiazol-5-yl]-3,4-dihydro-2H-1-benzo-pyran-4-one], for which the EC50 is > 316 nM.

In the case of `Brc1ccccc1-c1noc(-c2ccc3[nH]nnc3c2)n1` [Compound 190, 5-[3-(2-bromophenyl)-1,2,4-oxadiazol-5-yl]-1H-1,2,3-benzotriazole], the EC50 is > 316 nM.

Regarding `Cc1ncccc1-c1nc(-c2ccc3c(c2)nnn3C(C)C)no1` [Compound 194, 3-(1-isopropyl-1H-benzo[d][1,2,3]triazol-5-yl)-5-(2-methyl-pyridin-3-yl)-1,2,4-oxadiazole], the EC50 is > 316 nM.

For the compound `COc1ccc(-c2noc(-c3ccc4c(c3)nnn4C3CCCC3)n2)cc1C(F)(F)F` [Compound 197, 1-cyclopentyl-5-{3-[4-methoxy-3-(trifluoromethyl)phenyl]-1,2,4-oxadiazol-5-yl}-1H-1,2,3-benzotriazole], the EC50 is > 316 nM.

In the case of `Clc1ncccc1-c1noc(-c2ccc3c(c2)nnn3C2CCCC2)n1` [Compound 198, 5-[3-(2-chloro-pyridin-3-yl)-1,2,4-oxadiazol-5-yl]-1-cyclopenty1-1H-1,2,3-benzotriazole], the EC50 was < 316 nM.

For `Clc1ncccc1-c1noc(-c2ccc3c(c2)nnn3CC2CC2)n1` [Compound 199, 5-[3-(2-chloropyridin-3-yl)-1,2,4-oxadiazol-5-yl]-1-(cyclopropyl-methyl)-1H-1,2,3-benzotriazole], the EC50 was > 316 nM.

In the case of `Cc1ccccc1Cc1noc(-c2ccc3c(c2)nnn3C(C)C)n1` [Compound 202, 5-{3-[(2-methyl-phenyl)methyl]-1,2,4-oxadiazol-5-yl}-1-(propan-2-yl)-1H-1,2,3-benzotriazole], the EC50 was > 316 nM.

Consider `COc1cccnc1-c1noc(-c2ccc3c(c2)nnn3C2CCCC2)n1` [Compound 203, 1-cyclopentyl-5-[3-(3-methoxy-pyridin-2-yl)-1,2,4-oxadiazol-5-yl]-1H-1,2,3-benzotriazole], for which the EC50 is > 316 nM.

Turning to `Cc1cc(C)cc(-c2noc(-c3ccc4c(c3)nnn4C(C)C)n2)c1` [Compound 204, 5-[3-(3,5-dimethy-lphenyl)-1,2,4-oxadiazol-5-yl]-1-(propan-2-yl)-1H-1,2,3-benzotriazole], the EC50 was > 316 nM.

For the compound `CCCn1nnc2cc(-c3nc(-c4ccncc4)no3)ccc21` [Compound 205, 1-propyl-5-[3-(pyridin-4-yl)-1,2,4-oxadiazol-5-yl]-1H-1,2,3-benzotriazole], the EC50 was > 316 nM.

As to `Cc1ccncc1-c1noc(-c2ccc3c(c2)nnn3CC(C)(C)O)n1` [Compound 206, 2-methyl-1-{5-[3-(4-methylpyridin-3-yl)-1,2,4-oxadiazol-5-yl]-1H-1,2,3-benzotriazol-1-yl}propan-2-ol], the EC50 is > 316 nM.

In the case of `COc1ccccc1-c1noc(-c2ccc3c(c2)nnn3C(C)(C)C)n1` [Compound 207, 1-tert-butyl-5-[3-(2-methoxyphenyl)-1,2,4-oxadiazol-5-yl]-1H-1,2,3-benzotriazole], the EC50 is < 316 nM.

Regarding `C=CCNc1ccc(-c2nc(-c3ccc4[nH]ccc4c3)no2)cc1C#N` [Compound 208, 5-(3-(1H-indol-5-yl)-1,2,4-oxadiazol-5-yl)-2-(allylamino) benzonitrile], the EC50 was < 316 nM.

As to `CCC1(CC)CC(=O)c2cc(-c3nc(-c4ccc(NC(C)=O)cc4)no3)ccc2O1` [Compound 209, N-(4-(5-(2,2-diethyl-4-oxochroman-6-yl)-1,2,4-oxadiazol-3-yl)phenyl)acetamide], the EC50 was < 316 nM.

As for `N#Cc1cc(-c2nc(-c3ccc4c(c3)CC(=O)N4)no2)ccc1NCC1CC1` [Compound 210, 2-((cyclopropyl-methyl)amino)-5-(3-(2-oxoindolin-5-yl)-1,2,4-oxadiazol-5-yl)benzonitrile], the EC50 was < 316 nM.

On to `CCC1(CC)CC(=O)c2cc(-c3nc(-c4ccc5[nH]cnc5c4)no3)ccc2O1` [Compound 211, 6-(3-(1H-benzo[d]imidazol-5-yl)-1,2,4-oxadiazol-5-yl)-2,2-diethylchroman-4-one], for which the EC50 was > 316 nM.

For the compound `CCC1(CC)CC(=O)c2cc(-c3nc(-c4ccncc4OC)no3)ccc2O1` [Compound 212, 2,2-diethyl-6-(3-(3-methoxypyridin-4-yl)-1,2,4-oxadiazol-5-yl)chroman-4-one], the EC50 is < 316 nM.

Take `O=C1CC2(CCOCC2)Oc2ccc(-c3nc(-c4cccnc4)no3)cc21` [Compound 214, 6-[3-(pyridin-3-yl)-1,2,4-oxadiazol-5-yl]-3,4-dihydrospiro[1-benzopyran-2,4′-oxane]-4-one]: the EC50 was > 316 nM.

With `Cc1ccccc1-c1cnc(-c2ccc3c(c2)nnn3C(C)C)s1` [Compound 216, 2-(1-isopropyl-benzotriazol-5-yl)-5-(o-tolyl)thiazole], the EC50 is > 316 nM.

With `CCC1(CC)CC(=O)c2cc(-c3nnc(-c4ccc5c(c4)nnn5C(C)C)o3)ccc2O1` [Compound 223, 2,2-diethyl-6-(5-(1-isopropyl-1H-benzo[d][1,2,3]triazol-5-yl)-1,3,4-oxadiazol-2-yl)chroman-4-one], the EC50 was > 316 nM.

Regarding `C=CCNc1ccc(-c2nc(-c3ccc4c(c3)CC(=O)N4)no2)cc1C#N` [Compound 224, 2-(allylamino)-5-(3-(2-oxoindolin-5-yl)-1,2,4-oxadiazol-5-yl)benzonitrile], the EC50 was < 316 nM.

With `COc1ccc(-c2noc(-c3ccc4c(c3)nnn4C(C)C)n2)cc1OC` [Compound 230, 3-(3,4-dimethoxy-phenyl)-5-(1-isopropyl-1H-benzo[d][1,2,3]triazol-5-yl)-1,2,4-oxadiazole], the EC50 was > 316 nM.

Take `COc1ccccc1-c1noc(-c2ccc3c(c2)nnn3C2CCOCC2)n1` [Compound 231, 5-[3-(2-methoxy-phenyl)-1,2,4-oxadiazol-5-yl]-1-(oxan-4-yl)-1H-1,2,3-benzotriazole]: the EC50 is > 316 nM.

As for `Fc1ccc(-c2noc(-c3ccc4c(c3)nnn4C3CCCC3)n2)cc1` [Compound 232, 1-cyclopentyl-5-[3-(4-fluorophenyl)-1,2,4-oxadiazol-5 yl]-1H-1,2,3-benzotriazole], the EC50 was > 316 nM.

In the case of `Brc1ccccc1-c1noc(-c2ccc3c(c2)nnn3C2CCOCC2)n1` [Compound 233, 5-[3-(2-bromophenyl)-1,2,4-oxadiazol-5-yl]-1-(oxan-4-yl)-1H-1,2,3-benzotriazole], the EC50 is > 316 nM.

Regarding `Cc1ccc(-c2noc(-c3ccc4c(c3)nnn4C(C)C)n2)cn1` [Compound 236, 5-[3-(6-methylpyridin-3-yl)-1,2,4-oxadiazol-5-yl]-1-(propan-2-yl)-1H-1,2,3-benzotriazole], the EC50 is > 316 nM.

For `CSc1ccc(-c2nc(-c3ccc4c(c3)nnn4C3CCCC3)no2)cc1` [Compound 237, 3-(1-cyclopentyl-1H-benzo[d][1,2,3]triazol-5-yl)-5-(4-(methyl-thio)phenyl)-1,2,4-oxadiazole], the EC50 is > 316 nM.

For the compound `OCCn1nnc2cc(-c3noc(-c4ccccc4Br)n3)ccc21` [Compound 238, 2-(5-(5-(2-bromo-phenyl)-1,2,4-oxadiazol-3-yl)-1H-benzo[d][1,2,3]triazol-1-yl)ethanol], the EC50 is > 316 nM.
